Data: patent US12343326B2, “Psychoactive medicines and their use for treating psychiatric and neurological conditions and disorders” (Transcend Therapeutics, Inc., priority 2021, dated 2025)

Tests used:
Experiment in all cases: β-arrestin based GPCR screen (PathHunter / GPCRmax), antagonist mode
[1] = target: 168 GPCRs (Homo sapiens, UniProt P29371)
[2] = target: 168 GPCRs (Homo sapiens, UniProt P43220); conditions: GLP1R
[3] = target: 168 GPCRs (Homo sapiens, UniProt Q9H244)
[4] = target: 168 GPCRs (Homo sapiens, UniProt Q9Y5N1)
[5] = target: 168 GPCRs (Homo sapiens, UniProt P08588); conditions: ADRB1, Antagonist
[6] = target: 168 GPCRs (Homo sapiens, UniProt P30989)
[7] = target: 168 GPCRs (Homo sapiens, UniProt P21730); conditions: C5AR1, Antagonist
[8] = target: T1, 168 GPCRs (Homo sapiens, UniProt P24530); conditions: EDNRB
T1 sequence (P24530 27-442): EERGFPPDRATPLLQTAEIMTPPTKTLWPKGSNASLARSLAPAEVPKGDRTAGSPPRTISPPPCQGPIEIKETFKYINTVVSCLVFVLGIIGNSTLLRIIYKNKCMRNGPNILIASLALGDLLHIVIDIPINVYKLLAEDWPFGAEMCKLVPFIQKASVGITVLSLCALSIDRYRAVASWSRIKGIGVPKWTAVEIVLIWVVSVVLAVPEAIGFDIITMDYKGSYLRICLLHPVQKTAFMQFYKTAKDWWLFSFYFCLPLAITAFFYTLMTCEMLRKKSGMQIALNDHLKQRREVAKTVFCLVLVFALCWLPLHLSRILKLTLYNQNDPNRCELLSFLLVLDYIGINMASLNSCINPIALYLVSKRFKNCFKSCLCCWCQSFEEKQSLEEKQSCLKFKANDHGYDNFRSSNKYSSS

[9] = target: 168 GPCRs (Homo sapiens, UniProt O00574)
[10] = target: 168 GPCRs (Homo sapiens, UniProt P43115)
[11] = target: 168 GPCRs (Homo sapiens, UniProt Q15722); conditions: LTB4R
[12] = target: 168 GPCRs (Homo sapiens, UniProt P25025)
[13] = target: 168 GPCRs (Homo sapiens, UniProt P08908); conditions: HTR1A
[14] = target: 168 GPCRs (Homo sapiens, UniProt P51685); conditions: CCR8, Antagonist
[15] = target: 168 GPCRs (Homo sapiens, UniProt P41145)
[16] = target: 168 GPCRs (Homo sapiens, UniProt P16473); conditions: TSHR(L)
[17] = target: 168 GPCRs (Homo sapiens, UniProt P35346)
[18] = target: 168 GPCRs (Homo sapiens, UniProt P51681); conditions: CCR5, CCR5, Antagonist
[19] = target: 168 GPCRs (Homo sapiens, UniProt P07550); conditions: ADRB2, Antagonist
[20] = target: 168 GPCRs (Homo sapiens, UniProt P41586); conditions: ADCYAP1R1, Antagonist
Chain of 168 GPCRs (Homo sapiens, UniProt P41586) (P41586 21-468): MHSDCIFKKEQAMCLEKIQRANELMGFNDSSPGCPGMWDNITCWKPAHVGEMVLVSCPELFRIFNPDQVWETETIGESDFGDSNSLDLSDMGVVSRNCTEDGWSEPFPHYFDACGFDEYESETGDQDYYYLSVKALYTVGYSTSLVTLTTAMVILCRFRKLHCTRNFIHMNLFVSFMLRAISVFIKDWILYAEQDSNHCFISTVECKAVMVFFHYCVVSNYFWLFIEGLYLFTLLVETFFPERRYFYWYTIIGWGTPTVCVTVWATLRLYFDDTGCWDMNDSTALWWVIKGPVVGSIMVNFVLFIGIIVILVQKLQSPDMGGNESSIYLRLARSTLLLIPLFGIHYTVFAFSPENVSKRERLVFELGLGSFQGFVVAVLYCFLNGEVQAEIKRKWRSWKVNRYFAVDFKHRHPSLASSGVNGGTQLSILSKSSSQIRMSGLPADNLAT

Chain of 168 GPCRs (Homo sapiens, UniProt P08588) (P08588 whole entry): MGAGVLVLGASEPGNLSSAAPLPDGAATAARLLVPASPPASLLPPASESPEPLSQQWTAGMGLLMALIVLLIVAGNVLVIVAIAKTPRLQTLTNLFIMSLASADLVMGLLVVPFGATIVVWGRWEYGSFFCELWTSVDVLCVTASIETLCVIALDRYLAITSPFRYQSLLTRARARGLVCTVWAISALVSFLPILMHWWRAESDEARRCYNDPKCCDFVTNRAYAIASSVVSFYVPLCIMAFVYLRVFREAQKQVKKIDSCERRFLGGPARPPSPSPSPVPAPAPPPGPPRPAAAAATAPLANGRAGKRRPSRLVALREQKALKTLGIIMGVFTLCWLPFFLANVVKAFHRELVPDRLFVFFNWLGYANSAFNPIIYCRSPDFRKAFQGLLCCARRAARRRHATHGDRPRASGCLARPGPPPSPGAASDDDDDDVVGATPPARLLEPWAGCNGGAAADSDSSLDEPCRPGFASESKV
Chain of 168 GPCRs (Homo sapiens, UniProt P43220) (P43220 24-463): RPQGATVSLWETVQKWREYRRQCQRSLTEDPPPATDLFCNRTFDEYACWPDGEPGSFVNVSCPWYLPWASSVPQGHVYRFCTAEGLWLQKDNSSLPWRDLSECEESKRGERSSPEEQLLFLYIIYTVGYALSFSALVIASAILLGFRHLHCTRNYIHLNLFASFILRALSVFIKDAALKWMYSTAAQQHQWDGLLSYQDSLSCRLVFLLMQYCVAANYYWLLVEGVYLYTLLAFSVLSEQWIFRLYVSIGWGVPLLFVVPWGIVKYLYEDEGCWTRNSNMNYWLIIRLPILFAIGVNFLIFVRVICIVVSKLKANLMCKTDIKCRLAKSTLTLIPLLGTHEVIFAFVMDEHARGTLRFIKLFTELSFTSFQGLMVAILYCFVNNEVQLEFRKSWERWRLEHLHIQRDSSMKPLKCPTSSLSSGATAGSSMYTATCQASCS
Chain of 168 GPCRs (Homo sapiens, UniProt P07550) (P07550 whole entry): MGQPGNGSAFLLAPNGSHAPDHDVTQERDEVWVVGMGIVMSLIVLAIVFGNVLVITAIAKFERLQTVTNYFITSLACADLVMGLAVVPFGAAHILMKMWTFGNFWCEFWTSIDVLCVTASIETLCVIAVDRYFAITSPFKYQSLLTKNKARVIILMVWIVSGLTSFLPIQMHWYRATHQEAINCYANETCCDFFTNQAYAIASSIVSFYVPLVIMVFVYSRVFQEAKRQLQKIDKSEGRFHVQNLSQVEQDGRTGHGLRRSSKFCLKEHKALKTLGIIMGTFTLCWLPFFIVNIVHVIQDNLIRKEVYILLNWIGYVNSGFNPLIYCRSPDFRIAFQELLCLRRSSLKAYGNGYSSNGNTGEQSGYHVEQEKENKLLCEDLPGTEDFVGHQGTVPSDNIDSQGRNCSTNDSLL
Chain of 168 GPCRs (Homo sapiens, UniProt P35346) (P35346 whole entry): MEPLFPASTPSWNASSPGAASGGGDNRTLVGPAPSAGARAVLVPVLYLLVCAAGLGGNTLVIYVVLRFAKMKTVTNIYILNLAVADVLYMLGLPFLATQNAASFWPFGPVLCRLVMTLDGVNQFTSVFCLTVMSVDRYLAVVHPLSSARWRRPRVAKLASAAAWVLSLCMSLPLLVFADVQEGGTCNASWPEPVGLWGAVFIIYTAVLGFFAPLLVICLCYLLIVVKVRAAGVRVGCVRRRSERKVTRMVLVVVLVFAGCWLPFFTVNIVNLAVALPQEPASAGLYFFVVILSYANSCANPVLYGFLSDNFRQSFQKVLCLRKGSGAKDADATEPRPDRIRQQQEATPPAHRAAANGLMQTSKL
Chain of 168 GPCRs (Homo sapiens, UniProt P51681) (P51681 whole entry): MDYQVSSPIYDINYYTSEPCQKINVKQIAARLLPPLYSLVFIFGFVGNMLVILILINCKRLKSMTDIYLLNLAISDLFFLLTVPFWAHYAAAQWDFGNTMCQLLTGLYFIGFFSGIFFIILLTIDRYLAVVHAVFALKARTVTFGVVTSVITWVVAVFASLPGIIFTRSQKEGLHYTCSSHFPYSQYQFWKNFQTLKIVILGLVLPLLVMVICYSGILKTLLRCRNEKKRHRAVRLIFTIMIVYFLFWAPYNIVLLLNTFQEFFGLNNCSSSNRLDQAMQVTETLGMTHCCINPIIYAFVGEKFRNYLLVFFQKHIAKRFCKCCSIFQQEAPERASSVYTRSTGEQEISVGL
Chain of 168 GPCRs (Homo sapiens, UniProt P25025) (P25025 whole entry): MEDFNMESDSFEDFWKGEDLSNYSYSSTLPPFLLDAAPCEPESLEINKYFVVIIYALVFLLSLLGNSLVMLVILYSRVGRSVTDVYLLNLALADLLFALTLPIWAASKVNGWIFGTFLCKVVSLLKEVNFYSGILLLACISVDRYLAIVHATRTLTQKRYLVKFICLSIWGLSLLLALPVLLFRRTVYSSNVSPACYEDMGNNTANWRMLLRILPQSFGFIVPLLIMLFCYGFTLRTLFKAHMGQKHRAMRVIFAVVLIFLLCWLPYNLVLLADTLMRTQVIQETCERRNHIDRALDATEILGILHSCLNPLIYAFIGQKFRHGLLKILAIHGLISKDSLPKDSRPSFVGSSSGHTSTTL
Chain of 168 GPCRs (Homo sapiens, UniProt P16473) (P16473 21-764): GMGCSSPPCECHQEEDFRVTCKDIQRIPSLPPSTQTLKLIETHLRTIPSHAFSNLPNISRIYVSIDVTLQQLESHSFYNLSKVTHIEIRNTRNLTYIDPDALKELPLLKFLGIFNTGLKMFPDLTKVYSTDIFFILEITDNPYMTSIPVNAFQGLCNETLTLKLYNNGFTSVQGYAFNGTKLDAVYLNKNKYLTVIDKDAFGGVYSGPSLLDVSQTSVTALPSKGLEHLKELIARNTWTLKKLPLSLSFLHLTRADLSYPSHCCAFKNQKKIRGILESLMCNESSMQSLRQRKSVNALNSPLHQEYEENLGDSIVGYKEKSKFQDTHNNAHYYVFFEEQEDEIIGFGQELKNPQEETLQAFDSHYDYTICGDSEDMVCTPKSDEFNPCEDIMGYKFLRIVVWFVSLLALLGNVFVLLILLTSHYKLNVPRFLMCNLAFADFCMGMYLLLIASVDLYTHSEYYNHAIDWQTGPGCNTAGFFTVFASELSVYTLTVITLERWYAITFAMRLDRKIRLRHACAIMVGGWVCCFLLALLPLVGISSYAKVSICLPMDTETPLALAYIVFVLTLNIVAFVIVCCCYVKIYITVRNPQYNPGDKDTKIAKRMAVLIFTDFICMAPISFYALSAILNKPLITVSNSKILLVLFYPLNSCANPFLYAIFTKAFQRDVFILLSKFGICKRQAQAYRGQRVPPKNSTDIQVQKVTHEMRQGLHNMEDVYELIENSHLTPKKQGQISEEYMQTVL
Chain of 168 GPCRs (Homo sapiens, UniProt P08908) (P08908 whole entry): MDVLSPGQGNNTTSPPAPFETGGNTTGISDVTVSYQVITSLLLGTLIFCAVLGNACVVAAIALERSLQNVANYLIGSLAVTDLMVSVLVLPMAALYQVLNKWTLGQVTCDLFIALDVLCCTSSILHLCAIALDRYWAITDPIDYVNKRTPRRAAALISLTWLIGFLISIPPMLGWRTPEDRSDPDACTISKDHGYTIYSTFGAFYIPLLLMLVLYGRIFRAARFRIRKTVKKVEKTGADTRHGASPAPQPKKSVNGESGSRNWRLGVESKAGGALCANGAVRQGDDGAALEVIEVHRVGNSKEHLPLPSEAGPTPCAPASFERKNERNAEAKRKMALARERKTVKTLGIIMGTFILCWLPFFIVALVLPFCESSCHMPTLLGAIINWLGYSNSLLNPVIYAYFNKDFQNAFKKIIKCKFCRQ
Chain of 168 GPCRs (Homo sapiens, UniProt P43115) (P43115 whole entry): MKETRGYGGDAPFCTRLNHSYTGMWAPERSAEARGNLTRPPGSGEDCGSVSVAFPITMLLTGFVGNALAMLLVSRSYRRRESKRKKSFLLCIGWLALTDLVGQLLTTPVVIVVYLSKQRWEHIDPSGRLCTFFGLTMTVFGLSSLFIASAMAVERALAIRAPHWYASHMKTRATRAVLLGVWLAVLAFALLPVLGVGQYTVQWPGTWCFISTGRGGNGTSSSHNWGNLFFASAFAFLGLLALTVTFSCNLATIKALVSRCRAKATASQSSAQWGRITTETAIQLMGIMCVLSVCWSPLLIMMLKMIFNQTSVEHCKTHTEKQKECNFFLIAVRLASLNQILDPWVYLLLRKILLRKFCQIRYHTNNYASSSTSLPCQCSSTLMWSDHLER
Chain of 168 GPCRs (Homo sapiens, UniProt P29371) (P29371 whole entry): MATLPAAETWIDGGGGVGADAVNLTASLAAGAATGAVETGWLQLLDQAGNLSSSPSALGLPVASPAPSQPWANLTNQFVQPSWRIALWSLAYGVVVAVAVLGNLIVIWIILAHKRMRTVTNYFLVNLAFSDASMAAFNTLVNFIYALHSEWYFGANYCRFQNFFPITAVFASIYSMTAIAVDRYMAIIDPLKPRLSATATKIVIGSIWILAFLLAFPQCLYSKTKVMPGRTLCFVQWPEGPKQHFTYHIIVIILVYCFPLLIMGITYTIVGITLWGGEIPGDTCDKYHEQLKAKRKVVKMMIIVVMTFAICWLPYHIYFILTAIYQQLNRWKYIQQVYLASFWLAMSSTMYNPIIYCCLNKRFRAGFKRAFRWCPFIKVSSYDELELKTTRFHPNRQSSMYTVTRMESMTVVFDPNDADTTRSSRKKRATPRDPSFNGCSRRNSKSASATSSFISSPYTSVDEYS

## CNC(C)C(=O)c1ccc2c(c1)OCO2 (stereo not shown) [methylone, 3,4-methylenedioxy-N-methylcathinone]
[1]; TACR3, Antagonist mode, 10 uM
  activity at 10 µM: -14.3%
[1]; TACR3, Antagonist, 1 uM
  activity at 1 µM: -3.9%
[2]; Antagonist mode, 10 uM
  activity at 10 µM: -0.9%
[2]; Antagonist, 1 uM
  activity at 1 µM: 3.4%
[3]; P2RY12, Antagonist mode, 10 uM
  activity at 10 µM: -10.4%
[3]; P2RY12, Antagonist, 1 uM
  activity at 1 µM: -14.8%
[4]; HRH3, Antagonist mode, 10 uM
  activity at 10 µM: 5.8%
[4]; HRH3, Antagonist, 1 uM
  activity at 1 µM: 9.5%
[5]; 1 uM
  activity at 1 µM: -0.8%
[5]; 10 uM
  activity at 10 µM: -1.2%
[6]; NTSR1, Antagonist mode, 10 uM
  activity at 10 µM: -1.7%
[6]; NTSR1, Antagonist, 1 uM
  activity at 1 µM: -0.7%
[7]; 1 uM
  activity at 1 µM: 8.9%
[7]; 10 uM
  activity at 10 µM: 5%
[8]; Antagonist mode, 10 uM
  activity at 10 µM: 10.9%
[8]; Antagonist, 1 uM
  activity at 1 µM: 17.5%
[9]; CXCR6, Antagonist mode, 10 uM
  activity at 10 µM: 12.6%
[9]; CXCR6, Antagonist, 1 uM
  activity at 1 µM: 27.2%
[10]; PTGER3, Antagonist mode, 10 uM
  activity at 10 µM: 5.7%
[10]; PTGER3, Antagonist, 1 uM
  activity at 1 µM: -6.2%
[11]; Antagonist mode, 10 uM
  activity at 10 µM: -5.2%
[11]; Antagonist, 1 uM
  activity at 1 µM: 3.5%
[12]; CXCR2, Antagonist mode, 10 uM
  activity at 10 µM: -1%
[12]; CXCR2, Antagonist, 1 uM
  activity at 1 µM: -7.6%
[13]; Antagonist mode, 10 uM
  activity at 10 µM: -6.4%
[13]; Antagonist, 1 uM
  activity at 1 µM: -5.2%
[14]; 1 uM
  activity at 1 µM: 4.7%
[14]; 10 uM
  activity at 10 µM: -0.3%
[15]; OPRK1, Antagonist mode, 10 uM
  activity at 10 µM: 10.4%
[15]; OPRK1, Antagonist, 1 uM
  activity at 1 µM: 11.8%
[16]; Antagonist mode, 10 uM
  activity at 10 µM: -6.6%
[16]; Antagonist, 1 uM
  activity at 1 µM: 6.1%
[17]; SSTR5, Antagonist mode, 10 uM
  activity at 10 µM: 5.7%
[17]; SSTR5, Antagonist, 1 uM
  activity at 1 µM: 14.7%
[18]; 1 uM
  activity at 1 µM: 1.7%
[18]; 10 uM
  activity at 10 µM: -0.5%
[19]; 1 uM
  activity at 1 µM: 18.1%
[19]; 10 uM
  activity at 10 µM: 20.4%
[20]; 1 uM
  activity at 1 µM: 13.6%
[20]; 10 uM
  activity at 10 µM: 12.5%
